For experiment [1], the system named is H1299 cells. Nature of the experiment: Total ubiquitination state of non-Dox-treated cells (immunoblot, immunofluorescence). Format: cell-based. Particulars: H1299, 1.0 and 10 μM CR, 12 h. As for the experimental part:
Cells were seeded in the SPL 4 wells cell culture chamber slide 24 h before experiment. Cells were treated with an indicated compound for an indicated time. The cells were fixed with 4% formaldehyde for 15 min followed by three times of PBS washing. Cells were permeabilized by incubation with PBS containing 0.5% Triton-X100 and 5% FBS for 30 min, and then blocked with blocking buffer (PBS, 5% FBS, 0.3% Triton X-100) for 1.5 h. Subsequently, cells were incubated with primary antibody at 1/200 dilution in blocking buffer overnight and then washed with blocking buffer five times (5 min each) before incubation with fluorescence-conjugated secondary antibody at 1/200 dilution in blocking buffer for 1 h. Cells were then washed with blocking buffer five times (5 min each) before incubation with DAPI for 10 min and three times washing with PBS. Slides were covered with the coverslip in the presence of mounting solution (cat # 475904, MOWIOL) and subjected to confocal imaging. Images acquired in confocal imaging were subjected to fluorescence intensity analysis using ImageJ [55]. Fluorescence signal representing a particular ubiquitin chain level was analyzed and normalized with the intensity of DAPI. Data were analyzed using GraphPad Prism version 6.0 for Windows with two tail t-test for statistical data analysis. page 6: Figure S6. Effect of CR on the ubiquitination state of none-treated cells. […]
In general terms: In western blotting, separated proteins are transferred to a membrane and probed.

The subject of experiment [2] is H1299 cells. Nature of the experiment: Dox-induced K48- and K63-polyubiquitination in cells (immunofluorescence staining, Western blot). The class given is cell-based. To be noted: H1299, 5 or 10 μM CR 12 h pretreatment, then 5 μM Dox 12 h. As for the experimental part: Figure 6 CR inhibits Dox-induced ubiquitination in the cells. (a) Immunofluorescence staining of H1299 cells treated with or without 5 (+) and 10 (++) μM CR for 12 h followed by addition of Dox to a final concentration of 5 μM, with incubation for 12 h. The cells were subjected to immunofluorescence staining using the antibodies against K48 (αK48) and K63 polyubiquitins (αK63). (b) K48 or K63 polyubiquitin level in Figure 6a was quantified by fluorescence signal. At least seven random regions acquired in confocal images were sampled and normalized against DAPI intensity for quantification. (c) Immunoblots of samples in Figure 6a using the indicated antibodies. […] Statistical significance was calculated by the Student’s t-test (* p < 0.05, ** p < 0.01, *** p < 0.001).
Cells were seeded in the SPL 4 wells cell culture chamber slide 24 h before experiment. […] Subsequently, cells were incubated with primary antibody at 1/200 dilution in blocking buffer overnight and then washed with blocking buffer five times (5 min each) before incubation with fluorescence-conjugated secondary antibody at 1/200 dilution in blocking buffer for 1 h. […] Images acquired in confocal imaging were subjected to fluorescence intensity analysis using ImageJ [55]. Fluorescence signal representing a particular ubiquitin chain level was analyzed and normalized with the intensity of DAPI. […]

For the next experiment, the target named is ubiquitin (Homo sapiens, UniProt P0CG47). Kind of experiment: Intrinsic fluorescence quenching assay of ubiquitin. Particulars: 50 µM ubiquitin, 0–500 µM compound, ex 274 nm / em 305 nm; read-out: Kd, dissociation constant upon binding to ubiquitin. As for the experimental part: Intrinsic fluorescence quenching assays were performed as described previously. Briefly, intrinsic fluorescence quenching of ubiquitin by indicated compounds was observed by measuring the excitation and emission wavelength at 274 nm and 305 nm respectively of the mixture of 50 µM purified ubiquitin and 0–500 µM compound. Data were fitted to nonlinear regression curves with the equation described previously. F = −∆ε·[PC] + Fo(3) b = (Po + Co + Kd)(4) c = Po·Co(5) [PC] = [b − (b^2 − 4·c)^1/2]/2(6) where Fo and F are the normalized fluorescence intensity of the mixture of ubiquitin without the compound and with different concentrations of the compound, respectively. ∆ε is a difference in the extinction coefficient of the compound between their free and complex forms. [PC] is the concentration of protein/compound complex. Po and Co are the added concentration of ubiquitin and the compound, respectively in each experiment. Kd is the dissociation constant.

Another experiment relates to HCT116 cells. Kind of experiment: Dox-induced cell death, colorimetric cell viability, HCT116. The class given is cell-based. To be noted: 10 µM CR or 5 µM NSC697923 12 h, then Dox 1.25–5.0 μM 12 h. As for the experimental part:
Figure 7 CR enhances Dox sensitivity of cancer cells. (a,b) Enhancement of Dox-induced apoptosis of cancer cells by CR treatment. Dox–induced apoptosis of H1299 (a) and HCT116 (b) was quantified by colorimetric cell viability after treating 10 µM CR for 12 h followed by 12h treatment of Dox (0.0–5.0 µM). […] Caspase activity was quantified by luminogenic caspase activity assay. […] All error bars represent the standard deviation from at least four independent experiments. Statistical significance was calculated by the Student’s t-test (** p < 0.01, *** p < 0.001).
Cell viability assays were performed as described previously. For the caspase assays, the media were removed, and cells were lysed in 200 µL lysis buffer containing 50 µL Caspase Glo 3/7 solution and incubated for 15 min. Results were observed by measuring the luminescence signal using KOMM-Nr (Berthold Technologies, Bad Wildbad, Germany) and normalized with the total protein concentration measured by the Bradford assay. […]
Figure S8. NSC697923 enhances Dox sensitivity of cancer cells. (a, b) Effect of NSC697923 to cancer cells’ viability in Dox treatment . Dox–induced cell death of H1299 ( a) and HCT116 ( b) was quantified by colorimetric cell viability assay after treating 5 µM NSC697923 for 12 h followed by 12h treatment of Dox (0.0 […]
NSC697923. Caspase activity was quantified by luminogenic caspase activity assay. All error bars represent the standard deviation from at least 4 independent experiments. *, P<0.05; **, P<0.01; ***, P<0.001.

A word on the Kd: it is a measure of binding affinity in units of concentration. For the molecule `Nc1c(/N=N/c2ccc(-c3ccc(/N=N/c4cc(S(=O)(=O)O)c5ccccc5c4N)cc3)cc2)cc(S(=O)(=O)O)c2ccccc12` [CR, Congo red], the “Effect on total ubiquitination of normal (non-Dox-treated) cells” value in the experiment with H1299 cells [1] is “slight accumulation of the polyubiquitin chains”. The “Effect on Dox-triggered K48 and K63 ubiquitination” value in the experiment with H1299 cells [2] is “suppressed Dox-triggered ubiquitination in both K48 and K63”. For the same molecule, the equilibrium dissociation constant (Kd) on ubiquitin worked out at 14.4 ± 1.27 µM. Besides, in the experiment with HCT116 cells, the “Effect on Dox-induced cell death, HCT116” value is listed as “significantly enhanced Dox-induced cell death”.

The values are drawn from article PMC6471062, “Suppression of the Ubiquitin Pathway by Small Molecule Binding to Ubiquitin Enhances Doxorubicin Sensitivity of the Cancer Cells” (Molecules, 2019).
